Data on 11 compounds can be found in PMC8480782, “Efficient Dimerization Disruption of Leishmania infantum Trypanothione Reductase by Triazole-phenyl-thiazoles” (Journal of Medicinal Chemistry, 2021).

In test [1] the target is T1, TbTryR (Trypanosoma brucei brucei, UniProt P39051).
T1 construct: HIS; made in house; host or cells: E. coli
As to the kind of experiment: TryR oxidoreductase activity, DTNB-coupled assay (TbTryR). The format is biochemical. The source says: (§1) The DNA coding sequences for Homo sapiens GR, T. brucei TryR, and T. congolense TryR were polymerase chain reaction (PCR)-amplified and cloned in the pRSETA plasmid. The DNA coding for hGR (transcript variant 1; NCBI Reference Sequence: NM_000637.5) was purchased from GeneScript. Genomic DNA from T. congolense parasites was kindly provided by Dr. Stefan Magez (University of Vrije, Brussels). Genomic DNA from the T. brucei S16 cell line was kindly provided by José M. Pérez-Victoria. Instituto de Parasitología y Biomedicina “López—Neyra” CSIC. HIS-tagged recombinant T. brucei and T. congolense TryRs (TbTryR and TcoTryR, respectively) were purified from E. coli as already explained for LiTryR.
(§2) TryR oxidoreductase activity was determined spectrophotometrically using a modified version of the DTNB-coupled assay described by Hamilton et al.[52] Briefly, reactions were carried out at 26 °C in 250 μL of N-(2-hydroxyethyl)piperazine-N′-ethanesulfonic acid (HEPES) buffer (pH 7.5, 40 mM) containing ethylenediaminetetraacetic acid (EDTA) (1 mM), NADP^+ (30 μM), DTNB (25 μM), TS2 (1 μM), NADPH (150 μM), glycerol (0.02%), DMSO (1.75%), and recombinant TryR (7 nM). […] Reactions were started by addition of a mixture of NADPH and TS2.
(§3) TryR oxidoreductase activity was monitored at 26 °C by an increase in absorbance at 412 nm in an EnSpire Multimode Plate Reader (PerkinElmer, Waltham, MA). […] (TNB) concentration was obtained by multiplying the absorbance values by 100 (50 μM TNB generates 0.5 arbitrary units of absorbance at 412 nm). In this DTNB-coupled assay, one molecule of T(SH)2 reduces one molecule of DTNB, producing two TNB molecules. All of the assays were conducted in at least three independent experiments. Data were analyzed using a nonlinear regression model with GraFit 6 software (Erithacus, Horley, Surrey, U.K.).

Test [2] has as its target T2, TcoTryR (Trypanosoma congolense, UniProt P13110).
T2 construct: HIS; made in house; host or cells: E. coli
As to the kind of experiment: TryR oxidoreductase activity, DTNB-coupled assay (TcoTryR). The format is biochemical.
Description: as §1, §2, §3

Test [3] deals with L. infantum promastigotes. The experiment in a line: Leishmanicidal activity on promastigotes (PI exclusion, flow cytometry). To be noted: for SIp (ratio of EC50 against human cells to EC50 against promastigotes): HepG2 / promastigotes; for EC50: Leishmania infantum. It counts as cell-based, Leishmania infantum. Summed up:
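Log-phase L. infantum promastigotes (MCAN/ES/89/IPZ229/1/89) at 2 × 10^6 parasites/mL in RPMI-1640 with 10% FCS, pH 7.2, were drug-treated for 24 h at 26 °C. Viability was scored by flow cytometric propidium iodide exclusion, and EC50 was derived by nonlinear regression.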

In test [4] the test system is L. infantum intracellular amastigotes. The experiment in a line: Leishmanicidal activity in amastigote-infected THP-1 monocyte-derived macrophages. The format is cell-based, Leishmania infantum. Here is the method: (§4) THP-1 monocytes were seeded in a 48-well plate at a concentration of 5 × 10^5 cells/mL (250 μL/well) in RPMI complete medium supplemented with phorbol 12-myristate 13-acetate (PMA) (100 ng/mL). Differentiation of THP-1 monocytes to macrophages was allowed for 24 h at 37 °C and 5% CO2. THP-1-derived macrophages were infected with GFP-expressing axenic amastigotes at 5 × 10^6 parasites/mL in RPMI complete medium for 24 h (250 μL/well). Extracellular amastigotes were washed twice with PBS. The remaining extracellular parasites were challenged for 24 h with THP-1 medium supplemented with 10% horse serum (Gibco) instead of FCS. Cells were washed twice with PBS, and treatments were performed in 250 μL of fresh RPMI medium supplemented with 10% horse serum for 72 h at 37 °C and 5% CO2. Afterward, treatments were removed by two PBS washes. Lysis of infected cells was performed with 120 μL of SDS 0.005% (w/v) in PBS. After a 30 min incubation at 37 °C, lysis was stopped by adding RPMI complete medium with PI at 20 μg/mL (120 μL/well). The lysates were transferred to a 96-well plate (200 μL/well), and the GFP^+ amastigotes extracted from the infected cells were acquired by a Beckman Coulter FC500 flow cytometer. Each sample (100 μL) was acquired for 20 s.
The relative number of GFP^+ intracellular amastigotes per cell in each sample was estimated after the division of the total number of GFP+ amastigotes by the LDH activity value of the sample. Results were normalized to the vehicle-treated controls. EC50 values of intracellular amastigotes were calculated using a nonlinear regression model with GraFit 6 software (Erithacus, Horley, Surrey, U.K.). All of the assays were conducted in at least three independent experiments.

Test [5] relates to THP-1 monocyte-derived macrophages. As to the kind of experiment: Cytotoxicity in THP-1 monocyte-derived macrophages (LDH activity). It counts as cell-based, human. The note with it: Homo sapiens, THP-1; LDH activity. On the procedure: THP-1 cells were grown in RPMI-1640 medium (Gibco, Leiden, The Netherlands) supplemented with 10% heat-inactivated FCS, antibiotics, 10 mM HEPES, 2 mM glutamine, and 1 mM sodium pyruvate, pH 7.2, at 37 °C and 5% CO2.
as §4
Cytotoxicity of THP-1 infected macrophages was determined using an in-house developed lactate dehydrogenase (LDH) activity assay. LDH activity assays from the remaining cell lysates (100 μL/well) were carried out at 37 °C in 250 μL of Tris/HCl buffer (pH 8.9, 50 mM) containing DL-lactate (840 mM), NAD^+ (450 μM), 1-methoxyphenazine methosulfate (45 μM), and nitro blue tetrazolium chloride (40 μM). The color intensity of the generated formazan dye was monitored at 570 nm using an EnSpire Multimode Plate Reader (PerkinElmer, Waltham, MA). CC50 values were calculated using a nonlinear regression model with GraFit 6 software (Erithacus, Horley, Surrey, U.K.).

The mark [6] stands for this setting: read-out: IC50, oxidoreductase activity of TbTryR.
The mark [7] stands for this setting: 24 h at 26 °C, read-out: EC50 promastigotes.
Where [8] appears, read: promastigotes or amastigotes (either form), read-out: EC50 against Leishmania promastigotes or amastigotes.
The mark [9] stands for this setting: Leishmania infantum, THP-1, 72 h, read-out: EC50 intracellular amastigotes, amastigote-infected THP-1 macrophages, 72 h.
Where [10] appears, read: Leishmania infantum, THP-1, 72 h, amastigote-infected THP-1 macrophages, 72 h, read-out: EC50 intracellular amastigotes.

Several values for one entry are separate records, joined by “and”; a condition that tells them apart may be missing. Equal entries are not always repeated. Where two headings read alike, the source gives them in different places.

T2 sequence (P13110 whole entry): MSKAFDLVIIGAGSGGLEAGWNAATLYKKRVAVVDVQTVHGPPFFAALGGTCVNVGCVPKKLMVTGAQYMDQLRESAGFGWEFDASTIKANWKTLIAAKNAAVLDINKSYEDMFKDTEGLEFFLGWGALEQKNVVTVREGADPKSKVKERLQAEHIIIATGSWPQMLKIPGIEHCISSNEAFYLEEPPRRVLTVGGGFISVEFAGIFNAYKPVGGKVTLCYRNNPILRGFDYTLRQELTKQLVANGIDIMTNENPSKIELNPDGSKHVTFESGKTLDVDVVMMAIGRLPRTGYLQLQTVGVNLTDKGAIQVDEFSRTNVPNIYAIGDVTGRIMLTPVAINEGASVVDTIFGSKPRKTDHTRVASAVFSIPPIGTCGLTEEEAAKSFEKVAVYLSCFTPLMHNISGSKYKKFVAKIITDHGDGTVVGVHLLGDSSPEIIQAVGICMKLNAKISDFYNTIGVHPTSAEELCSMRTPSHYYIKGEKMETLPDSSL
T1 sequence (P39051 whole entry): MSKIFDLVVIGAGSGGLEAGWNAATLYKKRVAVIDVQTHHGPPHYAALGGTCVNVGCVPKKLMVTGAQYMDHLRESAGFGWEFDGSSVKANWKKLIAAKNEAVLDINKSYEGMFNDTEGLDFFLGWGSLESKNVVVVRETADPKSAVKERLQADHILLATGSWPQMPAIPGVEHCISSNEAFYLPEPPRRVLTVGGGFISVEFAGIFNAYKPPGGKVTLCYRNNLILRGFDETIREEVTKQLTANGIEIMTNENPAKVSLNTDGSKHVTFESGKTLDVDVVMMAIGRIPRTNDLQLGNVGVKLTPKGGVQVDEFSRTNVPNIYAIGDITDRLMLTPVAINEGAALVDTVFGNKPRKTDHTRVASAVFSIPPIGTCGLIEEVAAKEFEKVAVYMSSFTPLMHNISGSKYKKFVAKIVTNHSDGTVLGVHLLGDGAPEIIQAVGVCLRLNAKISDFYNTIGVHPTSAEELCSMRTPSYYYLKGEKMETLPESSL

The IC50 is the midpoint of a concentration-inhibition curve. For orientation: EC50 means the concentration that produces a half-maximal response. For `NCCCCc1cn(-c2ccc(-c3nc(CCc4ccc5ccccc5c4)cs3)c(OCCN3CCNC3=O)c2)nn1.O=C(O)C(F)(F)F` [12b, 1-(2-(5-(4-(4-Ammoniumbutyl)-1H-1,2,3-triazol-1-yl)-2-(4-(2-(naphthalen-2-yl)ethyl)thiazol-2-yl)phenoxy)ethyl)imidazolidin-2-one 2,2,2-Trifluoroacetate], the IC50 in test [1] (setting [6]) was 9.7 ± 2.1 µM; in test [2], 4.8 ± 1.9 µM. For the same compound, the “SIp (ratio of EC50 against human cells to EC50 against promastigotes)” value in test [3] was 4.0. The EC50 in test [3] (setting [7]) was 8.4 ± 0.3 µM; in test [3] (setting [8]) it was less than 10 µM; in test [4] (setting [9]) it was greater than 75 µM; in test [5] it was greater than 75 µM.

For `NCCCCc1cn(-c2ccc(-c3nc(CCc4ccc(-c5ccccc5)cc4)cs3)c(OCCN3CCNC3=O)c2)nn1.O=C(O)C(F)(F)F` [12c, 1-(2-(2-(4-(2-([1,1′-Biphenyl]-4-yl)ethyl)thiazol-2-yl)-5-(4-(4-ammoniumbutyl)-1H-1,2,3-triazol-1-yl)phenoxy)ethyl)imidazolidin-2-one 2,2,2-Trifluoroacetate], the values for the IC50 in test [1] (setting [6]) and in test [2] were 10 ± 2.5 µM and 4.8 ± 1.8 µM, respectively. Further, in test [3], the “SIp (ratio of EC50 against human cells to EC50 against promastigotes)” value is 8.8. Besides, the EC50 is 4.9 ± 0.4 µM in test [3] (setting [7]), less than 10 µM in test [3] (setting [8]), 46.5 ± 1.5 µM in test [4] (setting [9]) and greater than 75 µM in test [5].

As for `NCCCc1cn(-c2ccc(-c3nc(CCc4ccc(-c5ccccc5)cc4)cs3)c(OCCN3CCNC3=O)c2)nn1.O=C(O)C(F)(F)F` [12i], the “SIp (ratio of EC50 against human cells to EC50 against promastigotes)” value in test [3] is reported as 10.4. The EC50 in test [3] (setting [7]) was 5.8 ± 0.7 µM; in test [4] (setting [10]), 54.5 µM; in test [4] (amastigote-infected THP-1 macrophages, 72 h, read-out: EC50 intracellular amastigotes) it was 54.4 ± 15.5 µM; in test [5], greater than 75 µM.

As to `NCCCCc1cn(-c2ccc(-c3nc(-c4ccccc4)cs3)c(OCCN3CCNC3=O)c2)nn1.O=C(O)C(F)(F)F` [12n], the results for the IC50 in test [1] (setting [6]) and in test [2] were 12.5 ± 1.9 µM and 9.3 ± 0.8 µM, respectively. Further, the EC50 in test [3] (setting [7]) is 5.4 ± 0.08 µM; in test [3] (setting [8]) it was less than 10 µM.

For the compound `NCCCCc1cn(-c2ccc(-c3nc(CCc4ccc5c(c4)CCCN5)cs3)c(OCCN3CCNC3=O)c2)nn1.O=C(O)C(F)(F)F.O=C(O)C(F)(F)F` [12q], the EC50 in test [4] (setting [10]) and in test [5] was greater than 75 µM throughout.

As for `NCCCCc1cn(-c2ccc(-c3nc(CCc4ccc5c(c4)CCO5)cs3)c(OCCN3CCNC3=O)c2)nn1.O=C(O)C(F)(F)F` [12r], the values for the IC50 in test [1] and in test [2] were 15 ± 2.9 µM and 10.1 ± 1.4 µM, respectively. Also, the “SIp (ratio of EC50 against human cells to EC50 against promastigotes)” value in test [3] is given as 1.2. Further, the EC50 in test [3] (setting [7]) worked out at 23.8 ± 0.5 µM.

`NCCCCc1cn(-c2ccc(-c3nc(-c4ccccc4)c(-c4ccccc4)s3)c(OCCN3CCNC3=O)c2)nn1.O=C(O)C(F)(F)F` [19a, 1-(2-(5-(4-(4-Ammoniobutyl)-1H-1,2,3-triazol-1-yl)-2-(4,5-diphenylthiazol-2-yl)phenoxy)ethyl)imidazolidin-2-one 2,2,2-Trifluoroacetate]: the IC50 was found to be 7.3 ± 0.6 µM in test [1] (setting [6]) and 5.6 ± 0.8 µM in test [2]. Moreover, the “SIp (ratio of EC50 against human cells to EC50 against promastigotes)” value in test [3] came out at 2.5. For the same compound, the EC50 in test [3] (setting [7]) came to 10.7 ± 1.3 µM.

Take `NCCCCc1cn(-c2ccc(-c3nc(-c4ccc(Oc5ccccc5)cc4)c(-c4ccccc4)s3)c(OCCN3CCNC3=O)c2)nn1.O=C(O)C(F)(F)F` [19c, 1-(2-(5-(4-(4-Ammoniobutyl)-1H-1,2,3-triazol-1-yl)-2-(4-([4-phenyloxyphenyl]-1-yl)-5-phenylthiazol-2-yl)phenoxy)ethyl)imidazolidin-2-one 2,2,2-Trifluoroacetate]: the concentration for a half-maximal effect (EC50) in test [4] (setting [9]) and in test [5] was greater than 75 µM each time.

In the case of `NCCNCc1nccn1-c1ccc(-c2nc(CCc3ccc4ccccc4c3)cs2)c(OCCN2CCNC2=O)c1` [compound 2, reference compound], in test [3], the “SIp (ratio of EC50 against human cells to EC50 against promastigotes)” value is 2.1/2.1. Besides, the EC50 is 12.8 ± 0.7 µM in test [3] (setting [7]), greater than 75 µM in test [4] (setting [10]) and 27.9 ± 4.4 µM in test [5].

On to `NCCNCc1nccn1-c1ccc(-c2nc(CCc3ccc(-c4ccccc4)cc3)cs2)c(OCCN2CCNC2=O)c1` [compound 3, reference compound], for which the “SIp (ratio of EC50 against human cells to EC50 against promastigotes)” value in test [3] is 2.7 and 2.7/2.7. For the same compound, the values for the EC50 in test [3] (setting [7]), in test [4] (setting [10]) and in test [5] were 5.3 ± 0.3 µM, greater than 75 µM and 15.5 ± 1.8 µM, respectively.

For `NCCCCc1cn(-c2ccc(-c3nc(-c4cccc(-c5csc(-c6ccc(-n7cc(CCCCN)nn7)cc6OCCN6CCNC6=O)n5)c4)cs3)c(OCCN3CCNC3=O)c2)nn1.O=C(O)C(F)(F)F.O=C(O)C(F)(F)F` [compound 22, 1,1′-((((1,3-Phenylenebis(thiazole-4,2-diyl))bis(5-(4-(4-ammoniobutyl)-1H-1,2,3-triazol-1-yl)-2,1-phenylene))bis(oxy))bis(ethane-2,1-diyl))bis(imidazolidin-2-one)bis(2,2,2-trifluoroacetate)], the values for the 50% inhibitory concentration (IC50) in test [1] (setting [6]) and in test [2] were 1 ± 0.3 µM and 0.5 ± 0.1 µM, respectively. In test [3], the “SIp (ratio of EC50 against human cells to EC50 against promastigotes)” value worked out at 8.0. Moreover, the EC50 turned out to be 3.8 ± 0.1 µM in test [3] (setting [7]); 22 µM in test [4] (setting [9]); 22.2 ± 6.4 µM in test [4] (read-out: EC50 intracellular amastigotes, amastigote-infected THP-1 macrophages, 72 h); 48.4 ± 14.5 µM in test [5]. The “SI (intracellular amastigotes)” value in test [4] (THP-1 / intracellular amastigotes) is given as 2.2.
